Patent US20120101093A1, “SUBSTITUTED IMIDAZO[1,2-A]PYRIDINE DERIVATIVES, PHARMACEUTICAL COMPOSITIONS, AND METHODS OF USE AS BETA-SECRETASE INHIBITORS” (HIGH POINT PHARMACEUTICALS, LLC, priority 2009, published 2012)
Counter-ions that a name gives are not always drawn.

Assays:
BACE-1 enzyme = biological target: T1, BACE-1 enzyme (Homo sapiens, UniProt P56817); assay: BACE Fluorescence Resonance Energy Transfer (FRET) Assay; format: biochemical; details: pH 4-4.5, 30 min pre-incubation, about 1.5 hours reaction
T1 construct: purchased R & D Systems 931AS
T1 sequence (P56817 46-457 limits assumed): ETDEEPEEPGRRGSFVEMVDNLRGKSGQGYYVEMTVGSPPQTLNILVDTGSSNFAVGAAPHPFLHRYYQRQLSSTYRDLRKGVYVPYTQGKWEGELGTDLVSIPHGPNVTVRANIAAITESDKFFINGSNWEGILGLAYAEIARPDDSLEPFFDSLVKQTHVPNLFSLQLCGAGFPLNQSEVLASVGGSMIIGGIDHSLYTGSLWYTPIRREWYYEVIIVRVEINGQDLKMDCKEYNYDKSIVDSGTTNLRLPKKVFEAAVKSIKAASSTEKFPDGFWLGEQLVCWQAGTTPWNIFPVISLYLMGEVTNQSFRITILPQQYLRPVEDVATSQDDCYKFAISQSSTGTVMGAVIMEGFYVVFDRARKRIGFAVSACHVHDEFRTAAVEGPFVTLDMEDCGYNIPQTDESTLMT
In short: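 Fluorescence (ex 540, em 585 nm) after ~1.5 h room-temperature cleavage of a quenched rhodamine peptide tracks BACE-1 activity. Enzyme and compound first sit 30 min in pH 4-4.5 acetate buffer with CHAPS, Triton X-100, EDTA, 7.5% DMSO. Values given as IC50 or % inhibition.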

[1] = system: Aβ1-40 secreted from HEK293 cells stably expressing wildtype human APP695 protein (HEK-APPwt cells); assay: Aβ Cell Based Assay (Aβ1-40 secretion, ELISA); details: Homo sapiens, HEK293, 6 h, 6 hours incubation, reduction of Aβ1-40 secretion
Method: Aβ Cell Based Assay Procedure
In the following assay, the proteolytic activity of BACE in cells exposed to varying concentrations of a compound of interest is measured by observing the amount of Aβ1-40 secreted from HEK293 cells (Human Embryonic Kidney epithelial cell line) stably expressing wildtype human APP695 protein (HEK-APPwt cells).
HEK-APPwt cells were grown in high glucose DMEM (Dulbecco's Modified Eagles Medium SIGMA Cat.# D5796) supplemented with 25 mM HEPES (4-(2-hydroxyethyl)-1-piperazineethanesulfonic acid) (pH 7.4) (Invitrogen Cat.# 15630-114), 0.1 mM NEAA (Non-essential Amino Acids) (BioWhittaker Cat. #13-114E), 10% fetal bovine serum (SIGMA Cat. #F4135) and 250 μg/mL hygromycin (Invitrogen Cat. #10687-010) in T-225 flasks at 37° C. with 5% CO2 and humidity control.
Test compounds were initially prepared in DMSO and diluted with DMEM media containing 2% FBS (Fetal bovine serum). Ten standard compound solutions were prepared having a range of concentrations. The standard compound solutions were used to determine the EC50 of the test compound. The range of concentrations chosen may depend on the compound's predicted potency.
To prepare the cells for the assay, a flask containing HEK-APPwt cells were trypsinized briefly (1 mL trypsin), and once the cells detached, 4 mL of 10% FBS-DMEM was added to the flask. The detached cells were centrifuged at 900 rpm for 5 min to form a pellet.
The HEK-APPwt cell pellet was re-suspended with 10 mL DMEM media containing 2% FBS. 80 μL of the cell suspension was added to each well of a 96-well cell culture plate to give 100×10^4cells/ml. 10 μL of a standard compound solution was added to each well of the 96-well cell culture plate followed by 10 μL of Alamar blue solution. The cells were incubated at 37° C. in a 5% CO2 incubator for 6 hours.
At the end of the incubation, the plates were removed from incubator, and the supernatant was collected. A≈1-40 concentration in the medium was measured by using a commercial Aβ1-X ELISA kit (IBL, Japan Cat. #27729). Briefly, the ELISA plates were coated with an anti-human AO (N)(82E1) mouse IgG monoclonal antibody. A horseradish peroxidase conjugated anti-human Aβ11-28 mouse IgG monoclonal antibody was used for detection. The cell culture supernatant was diluted with EIA buffer +protease inhibitors (kit buffer containing protease inhibitors (1 mL PI/30 mL buffer)). A 100 μL aliquot of the diluted supernatant was added to each well of the ELISA plate and incubated for 6 hrs at 4° C. The ELISA plate was washed 8 times with phosphate buffered saline (PBS) containing 0.05% Tween 20.
A 100 μL of detection antibody was then added and incubated for 1 hour at 4° C. The plate was washed 8 times with PBS buffer containing 0.05% Tween 20 followed by addition of 100 μL of the chromogen tetramethylbenzidine (TMB). The plate was incubated in the dark at room temperature for about 30 min and a stop solution (1N H2SO4) was added.
The intensity of the color developed was measured at 450 nm. The optical density at 450 nm (OD450) is proportional to the concentration of human Aβ1-40 secreted by the cell. As a reference, N-[N-(3,5-difluorophenacetyl-L-alanyl)]-S-phenylglycine t-butyl ester (DAPT, a γ-secretase inhibitor) was used to indicate 100% inhibition of BACE activity. Thus, the assay measures the ability of a compound of interest to reduce Aβ1-40 secretion. For select compounds, compound potency is reported in Table 3 as the EC50 by calculating the percent inhibition at all concentration levels and the data were fit with non-linear curve fitting algorithm using GraphPad Prism.

| Structure (SMILES) | IC50 (BACE-1 enzyme) [µM] | EC50 [1] [µM] |
| --- | --- | --- |
| O=C(Nc1nc2cc(-c3cccc(C(F)(F)F)c3)ccc2[nH]1)c1cn2c(OC3CCNCC3)cccc2n1 [Example 2, 5-(Piperidin-4-yloxy)-imidazo[1,2-a]pyridine-2-carboxylic acid[5-(3-trifluoromethyl-phenyl)-1H-benzoimidazol-2-yl]-amide trihydrochloride] | 0.98 | 6.4 |
| CN1CCC(Oc2cccc3nc(C(=O)Nc4nc5cc(-c6cccc(C(F)(F)F)c6)ccc5[nH]4)cn23)CC1 [Example 3, 5-(1-Methyl-piperidin-4-yloxy)-imidazo[1,2-a]pyridine-2-carboxylic acid[5-(3-trifluoromethyl-phenyl)-1H-benzoimidazol-2-yl]-amide] | 1.15 | 4.02 |
| Cc1cccc2nc(C(=O)Nc3nc4ccc(-c5cccc(C(F)(F)F)c5)cc4n3C)cn12 [Example 11, 5-Methyl-imidazo[1,2-a]pyridine-2-carboxylic acid [1-methyl-6-(3-trifluoromethyl-phenyl)-1H-benzoimidazol-2-yl]-amide] | 0.55 | 8.83 |
| Cc1cccc2nc(C(=O)Nc3nc4cc(OCc5cccc(C(F)(F)F)c5)ccc4[nH]3)cn12 [Example 26, 5-Methyl-imidazo[1,2-a]pyridine-2-carboxylic acid [5-(3-trifluoromethyl-benzyloxy)-1H-benzoimidazol-2-yl]-amide] | 0.42 | 1.21 |
| Cc1cccc2nc(C(=O)Nc3nc4cc(-c5cccc(Cl)c5)ccc4[nH]3)cn12 [Example 27, 5-Methyl-imidazo[1,2-a]pyridine-2-carboxylic acid [5-(3-chloro-phenyl)-1H-benzoimidazol-2-yl]-amide] | 0.5 | 1.45 |
| Cc1c(N2CC[C@H](O)C2)ccc2nc(C(=O)Nc3nc4cc(-c5cc(F)cc(Cl)c5)ccc4[nH]3)cn12 [Example 235, 6-((S)-3-Hydroxy-pyrrolidin-1-yl)-5-methyl-imidazo[1,2-a]pyridine-2-carboxylic acid [5-(3-chloro-5-fluoro-phenyl)-1H-benzoimidazol-2-yl]-amide] | 0.69 |  |
| COCCn1c(NC(=O)c2cn3c(C)cccc3n2)nc2ccc(-c3cccc(C(F)(F)F)c3)cc21 [Example 239, 5-Methyl-imidazo[1,2-a]pyridine-2-carboxylic acid [1-(2-methoxy-ethyl)-6-(3-trifluoromethyl-phenyl)-1H-benzoimidazol-2-yl]-amide] | 0.7 |  |
| Cc1cccn2cc(C(=O)Nc3nc4cc(-c5cccc(C(F)(F)F)c5)ccc4n3C)nc12 [Example 241, 8-Methyl-imidazo[1,2-a]pyridine-2-carboxylic acid [1-methyl-5-(3-trifluoromethyl-phenyl)-1H-benzoimidazol-2-yl]-amide] | 1.5 |  |
| COCCn1c(NC(=O)c2cn3c(C)cccc3n2)nc2cc(-c3ccc(Cl)c(C(F)(F)F)c3)ccc21 [Example 242, 5-Methyl-imidazo[1,2-a]pyridine-2-carboxylic acid [5-(4-chloro-3-trifluoromethyl-phenyl)-1-(2-methoxy-ethyl)-1H-benzoimidazol-2-yl]-amide] | 0.44 |  |
| Cc1cccc2nc(C(=O)Nc3nc4cc(-c5ccc(Cl)c(C(F)(F)F)c5)ccc4n3CCN3CCOCC3)cn12 [Example 243, 5-Methyl-imidazo[1,2-a]pyridine-2-carboxylic acid [5-(4-chloro-3-trifluoromethyl-phenyl)-1-(2-morpholin-4-yl-ethyl)-1H-benzoimidazol-2-yl]-amide] | 6.9 |  |
| O=C(O)c1ccn2cc(C(=O)Nc3nc4cc(-c5cc(F)cc(Cl)c5)ccc4[nH]3)nc2c1 [Example 244, 2-[5-(3-Chloro-5-fluoro-phenyl)-1H-benzoimidazol-2-ylcarbamoyl]-imidazo[1,2-a]pyridine-7-carboxylic acid] | 3.64 |  |

These reach a lower IC50 (BACE-1 enzyme). Values come first.

| IC50 (BACE-1 enzyme) [µM] | Structure (SMILES) | EC50 [1] [µM] |
| --- | --- | --- |
| 0.35 | O=C(Nc1nc2cc(-c3cccc(Cl)c3)ccc2[nH]1)c1cn2cc(OCCOC3CCCCO3)ccc2n1 (centres unmarked) [Example 234, 6-[2-(Tetrahydro-pyran-2-yloxy)-ethoxy]-imidazo[1,2-a]pyridine-2-carboxylic acid [5-(3-chloro-phenyl)-1H-benzoimidazol-2-yl]-amide] |  |
| 0.32 | Cc1cccc2nc(C(=O)Nc3nc4cc(-c5cccc(C(F)(F)F)c5)ccc4[nH]3)cn12 [Example 1, 5-Methyl-imidazo[1,2-a]pyridine-2-carboxylic acid[5-(3-trifluoromethyl-phenyl)-1H-benzoimidazol-2-yl]-amide] | 0.53 |
| 0.32 | Cc1cccn2cc(C(=O)Nc3nc4cc(-c5cccc(OC(F)(F)F)c5)ccc4[nH]3)nc12 [Example 28, 8-Methyl-imidazo[1,2-a]pyridine-2-carboxylic acid [5-(3-trifluoromethoxy-phenyl)-1H-benzoimidazol-2-yl]-amide] | 2.13 |
| 0.3 | CN1CCN(Cc2cccc3nc(C(=O)Nc4nc5cc(-c6cccc(C(F)(F)F)c6)ccc5[nH]4)cn23)CC1 [Example 10, 5-(4-Methyl-piperazin-1-ylmethyl)-imidazo[1,2-a]pyridine-2-carboxylic acid [5-(3-trifluoromethyl-phenyl)-1H-benzoimidazol-2-yl]-amide] | 2.53 |
| 0.27 | Cc1cccc2nc(C(=O)Nc3nc4cc(-c5ccc(C(F)(F)F)cc5)ccc4[nH]3)cn12 [Example 23, 5-Methyl-imidazo[1,2-a]pyridine-2-carboxylic acid [5-(4-trifluoromethyl-phenyl)-1H-benzoimidazol-2-yl]-amide] | 0.66 |
| 0.25 | CO[C@@H]1CCN(c2ccc3nc(C(=O)Nc4nc5cc(-c6cc(F)cc(Cl)c6)ccc5[nH]4)cn3c2C)C1 [Example 236, 6-((R)-3-Methoxy-pyrrolidin-1-yl)-5-methyl-imidazo[1,2-a]pyridine-2-carboxylic acid [5-(3-chloro-5-fluoro-phenyl)-1H-benzoimidazol-2-yl]-amide] |  |
| 0.23 | CO[C@H]1CCN(c2ccc3nc(C(=O)Nc4nc5cc(-c6cc(F)cc(Cl)c6)ccc5[nH]4)cn3c2C)C1 [Example 237, 6-((S)-3-Methoxy-pyrrolidin-1-yl)-5-methyl-imidazo[1,2-a]pyridine-2-carboxylic acid [5-(3-chloro-5-fluoro-phenyl)-1H-benzoimidazol-2-yl]-amide] |  |
| 0.22 | Cc1c(C#CCO)ccc2nc(C(=O)Nc3nc4cc(-c5cccc(C(F)(F)F)c5)ccc4[nH]3)cn12 [Example 238, 6-(3-Hydroxy-prop-1-ynyl)-5-methyl-imidazo[1,2-a]pyridine-2-carboxylic acid [5-(3-trifluoromethyl-phenyl)-1H-benzoimidazol-2-yl]-amide] |  |
| 0.2 | Cc1cccc2nc(C(=O)Nc3nc4cc(OCc5ccccc5)ccc4[nH]3)cn12 [Example 12, 5-Methyl-imidazo[1,2-a]pyridine-2-carboxylic acid (5-benzyloxy-1H-benzoimidazol-2-yl)-amide] | 2.01 |
| 0.16 | Cc1cccc2nc(C(=O)Nc3nc4cc(OCc5ccc(C(F)(F)F)cc5)ccc4[nH]3)cn12 [Example 18, 5-Methyl-imidazo[1,2-a]pyridine-2-carboxylic acid [5-(4-trifluoromethyl-benzyloxy)-1H-benzoimidazol-2-yl]-amide] | 0.42 |
